The values below come from patent publication US10239844B2, “Disubstituted triazole analogs” (BioVentures, LLC, priority 2014, dated 2019).

The structures appear in SMILES notation.

The test system of data set [1] is GFP expressing leukemia cells. The experiment in a line: In vivo anti-leukemic activity, GFP expressing leukemia cells injected into mice. To be noted: 3.5 mg/kg. The procedure: The anti-leukemic activity of Compound 8 (FIG. 1) was evaluated in vivo. GFP expressing leukemia cells were injected into mice. One week post injection, mice were treated with Compound 8 at 3.5 mg/kg or DMSO (control) (FIG. 11A). Mice were imaged one week later. […] Further, bone marrow was isolated and the percent of GFP expressing AML stem cells was quantitated.

For another data set, the system named is Hs578T cells. The experiment in a line: Hs578T cell viability, Calcein-AM fluorescence, 48 hours. In kind it is cell-based. To be noted: Homo sapiens, Hs-578T. The protocol: Some of these compounds were also screened against breast cancer cell line Hs578T. Briefly, Hs578T cells were seeded at 3,000 cells per well into 96-well plates and incubated overnight at 37° C. in DMEM (Dulbecco's Modified Eagle's Medium) containing 10% FBS (Fetal Bovine Serum) medium. The following day, various concentrations of combretastin analogs, or vehicle, were added to each plate and the plates were then incubated for 48 hours. Then, cells were washed twice with Dulbecco's Phosphate-Buffered Saline (DPBS) pH 7.4 and incubated with 2 μM Calcein-AM for 30 minutes at 25° C. Fluorescence was measured using a 490 nm excitation filter and a 520 nm emission filter. The fluorescence intensity is proportional to the number of viable cells. The fluorescence intensity of control (untreated) cells was taken as 100% viability. The relative cell viability compared to control was calculated by using the following formula: Cell viability (%)=Fluorescence intensity of treated cells/Fluorescence intensity of untreated cells×100.
The GI50 values (growth inhibition; anti-proliferation) were calculated using GraphPad prism (San Diego, Calif.) by plotting the percent cell viability as a function of the compound concentration and fit to a four-parameter logistic model. The data represents mean±standard deviation of three independent experiments.

As to `COc1cc(-c2n[nH]nc2-c2ccc3c(c2)OCO3)cc(OC)c1OC` [Compound 8, 4-(benzo[d][1,3]dioxol-5-yl)-5-(3,4,5-trimethoxyphenyl)-2H-1,2,3-triazole], the “tumor shrinkage, imaging of GFP expressing cells (FIG. 11C)” value in data set [1] (imaged one week after treatment, relative to DMSO and untreated mice) is reported as “significant tumor shrinkage”. The “percent of GFP expressing AML stem cells in bone marrow (FIG. 10)” value in data set [1] (isolated bone marrow) was “significant reduction in AML stem cells”. For the same compound, the “average radiance (FIG. 11B)” value in data set [1] (versus DMSO control) was “significant reduction in leukemia cells”.

Compound `COc1cc(-c2n[nH]nc2-c2cc3ccccc3s2)cc(OC)c1OC` [PNR-7-74, 4-(benzo[b]thiophen-2-yl)-5-(3,4,5-trimethoxyphenyl)-2H-1,2,3-triazole] returned a melting point of 189 to 191 °C. Further, in the data set with Hs578T cells, the 50% growth inhibitory concentration (GI50) was 10.3 nM.

Compound `COc1cc(-c2n[nH]nc2-c2cc3ccccc3o2)cc(OC)c1OC` [PNR-7-81, 4-(benzofuran-2-yl)-5-(3,4,5-trimethoxyphenyl)-2H-1,2,3-triazole] gave a melting point of 158 to 160 °C. Besides, the GI50 in the data set on Hs578T cells is 20.3 nM.

For the compound `COc1cc(OC)cc(-c2n[nH]nc2-c2cc3ccccc3s2)c1` [PNR-7-83, 4-(benzo[b]thiophen-2-yl)-5-(3,5-dimethoxyphenyl)-2H-1,2,3-triazole], in the data set on Hs578T cells, the 50% growth inhibitory concentration (GI50) is 66.5 nM.
